Results taken from ChEMBL document CHEMBL1127067 (1993).

Assays:
Assay type in all cases: functional
Mus musculus [1] = species on record: Mus musculus; experiment: Number of survivors after treating 42 mice (infected with P388 leukemia) for 30 days
Mus musculus [2] = experiment: Antitumor activity against P388 leukemia in BDF1/CDF1 mice expressed as percentage increase in life span at optimum dose of 12.5 mg/kg
Mus musculus [3] = experiment: Antitumor activity against B-16 melanoma in BDF1 mice expressed as percentage increase in life span at optimum dose of 6 mg/kg; settings: B16
Mus musculus [4] = species on record: Mus musculus; experiment: Number of survivors after treating 12 mice (infected with B16 melanoma) for 60 days

C(=N\NC1=NCCN1)/c1c2ccccc2c(/C=N/NC2=NCCN2)c2ccccc12 [BISANTRENE]
Cures (Mus musculus [1]): 17
ILS at 12.5 mg/kg (Mus musculus [2]): 137%
ILS at 6 mg/kg (Mus musculus [3]): 122%
Cures (Mus musculus [4]): 2
